Test results as given in US20110217265A1, “Screening for Inhibitors of HCV Amphipathic Helix (AH) Function” (priority 2008, published 2011).

Columns and labels:
[1] = system: 2a HCV RNA replicon; test: 2a HCV RNA replicon assay (FL-J6/JFH-5'C19Rluc2AUbi, luciferase); type: cell-based, Hepatitis C Virus genotype 2a; settings: Hepatitis C virus, read-out: 2a (%) Percent of virus activity remaining in the presence of the compound
Excerpt: Plasmids. Bart79I, a high-efficiency subgenomic replicon of HCV (28), harbors the neomycin resistance gene (neo) and the HCV nonstructural proteins. The Bart-Luciferase plasmid, Bart79I-luc, was cloned from the Bart791 parent (29) and the pGL3-Basic parent (Promega). In brief, a NotI site was introduced after the 15th amino acid of Core in Bart791 using PCR mutagenesis. The plasmid pcDNA3.1-NS4B, which encodes the Con1 NS4B sequence and was used to study the protein stability of the wild type and mutant NS4Bs, was described previously. To introduce the M2 mutation into the 4BAH2 of plasmids encoding HCV replicons or NS4B, the nucleotide sequence GCG that encodes for alanine at NS4B amino acid position 51 was changed to GAG (encoding for glutamate) and the nucleotide sequence TGG that encodes for tryptophan at amino acid position 55 was changed to GAT (encoding for aspartate) through the use of Quick-ChangeTMXL site-directed mutagenesis kit (Stratagene, La Jolla, Calif.) as described by the manufacturer and confirmed by sequencing. FL-J6/JFH-5′C19Rluc2AUbi, which is a monocistronic, full-length HCV genome that expresses Renilla luciferase (Rluc) and was derived from the previously described infectious genotype 2a HCV genome J6/JFH1.
(§1) Antiviral Assays of Compounds. Subconfluent Huh7.5 cells were trypsinized and collected by centrifugation at 700 g for 5 min. The cells were then washed three times in ice-cold RNasefree PBS buffer (BioWhittaker) and resuspended at 1.5×10^7 cells·ml^−1 in PBS buffer. Wild-type FL-J6/JFH-5′C19Rluc2AUbi and Bart79I-luc RNAs for electroporation were generated by in vitro transcription of XbaI (FL-J6/JFH-5′C19Rluc2AUbi) and ScaI (Bart791-luc)-linearized DNA templates using the T7 MEGAscript kit (Ambion), followed by phenol-chloroform purification and DEPC water suspension, 5 μg of RNA were mixed with 400 μl of washed Huh7.5 cells in a 2-mm-gap cuvette (BTX) and immediately pulsed (0.82 kV (FL-J6/JFH-5′C19Rluc2AUbi) and 0.68 kV (Bart79I-luc), five […] pulses) with a BTX-830 electroporator. After 10 min recovery at 25° C., pulsed cells were diluted into 20 ml of pre-warmed growth medium. Cells from several electroporations were pooled to a common stock and seeded in 96-well plates (17,000-20,000 cells per well). After 24 hr, compounds were added to the cells and media changes were performed daily with fresh compounds. After 72 hr of treatment, cells were incubated for 2 hr at 37° C. in the presence of 10% Alamar Blue reagent (TREK Diagnostic Systems) to assess for cytotoxicity. Plates were then scanned and fluorescence was detected by using a FLEXstation II 384 (Molecular Devices). The signal was normalized relative to untreated samples. Viral RNA replication was determined using Renilla (FL-J6/JFH-5′C19Rluc2AUbi) or firefly (Bart791-luc) luciferase assays, according to the manufacturer's (Promega) directions. The same samples subjected to the viability assay described below were analyzed in this assay. According to the manufacturer protocol, cells were washed with PBS buffer and shaken at room temperature for 15 min in 20 μl of lysis buffer. Reporter assays were performed directly in the wells of the culture plates by injecting 100 μl of the assay substrate into each well. Luminescence was measured over 10 seconds with a 2-second delay using a Berthold LB 96 V luminometer. Signal was normalized relative to untreated samples or samples grown in the presence of the corresponding concentration of DMSO. Experiments were repeated three times, each time with 4 replicates.

[2] = system: Huh7.5 cells; test: Alamar Blue cell viability assay; type: cell-based, human
Method: as §1, with “Plates were then scanned and fluorescence was detected by using a FLEXstation II 384 (Molecular Devices).” left out

[3] = system: HCV 1b RNA replicon; test: 1b HCV RNA replicon assay, Huh7 cell line with stable luciferase reporter; type: cell-based, Hepatitis C Virus genotype 1b; settings: Huh7, stable LUC reporter; for IC50: Hepatitis C virus, Huh-7

Row | Structure (SMILES) | activity at 5 µM [1] [%] | activity at 10 µM [1] [%] | Cell Viability (%), alamar blue ([2]; 5 μM) [%] | Cell Viability (%), alamar blue ([2]; 10 μM) [%] | 1b assay IC50 [3] | IC50 [3] [µM]
1 | CC(C)CN(C)c1nc(N)c(C(=O)NCc2ccccc2)nc1Cl [ID 292, 3-amino-N-benzyl-6-chloro-5-(isobutyl(methyl)amino)pyrazine-2-carboxamide 2,2,2-trifluoroacetate] | 39 | 25 | 80 | 62 | inactive | 
2 | Cc1cc(Cl)ncc1NC(=O)c1nc(Cl)c(N(C)CC(C)C)nc1N [ID 293, 3-amino-6-chloro-N-(6-chloro-4-methylpyridin-3-yl)-5-(isobutyl(methyl)amino)pyrazine-2-carboxamide bis(2,2,2-trifluoroacetate)] | 34 | 28 | 71 | 66 | inactive | 
3 | CC(C)CN(C)c1nc(N)c(C(=O)NC2CCCCC2)nc1Cl.O=C(O)C(F)(F)F [ID 313, 3-amino-6-chloro-N-cyclohexyl-5-(isobutyl(methyl)amino)pyrazine-2-carboxamide 2,2,2-trifluoroacetate] | 33 | 12 | 68 | 48 |  | > 25
4 | CC(C)CN(C)c1nc(N)c(C(=O)NC2CCNCC2)nc1Cl.O=C(O)C(F)(F)F [ID 319, 3-amino-6-chloro-5-(isobutyl(methyl)amino)-N-(piperidin-4-yl)pyrazine-2-carboxamide 2,2,2-trifluoroacetate] | 37 | 11 | 87 | 75 |  | 6.9
5 | CC(C)CN(C)c1nc(N)c(C(=O)NCC2CCCCC2)nc1Cl.O=C(O)C(F)(F)F [ID 320, 3-amino-6-chloro-N-(cyclohexylmethyl)-5-(isobutyl(methyl)amino)pyrazine-2-carboxamide 2,2,2-trifluoroacetate] | 37 | 17 | 80 | 59 | inactive | 
6 | CC(C)CN(C)c1nc(N)c(C(=O)NCc2cccnc2)nc1Cl.O=C(O)C(F)(F)F [ID 341, 3-amino-6-chloro-5-(isobutyl(methyl)amino)-N-(pyridin-3-ylmethyl)pyrazine-2-carboxamide 2,2,2-trifluoroacetate] | 30 | 15 | 77 | 65 | inactive | 
7 | CC(C)CN(C)c1nc(N)c(C(=O)NCc2ccncc2)nc1Cl.O=C(O)C(F)(F)F [ID 342, 3-amino-6-chloro-5-(isobutyl(methyl)amino)-N-(pyridin-4-ylmethyl)pyrazine-2-carboxamide 2,2,2-trifluoroacetate] | 22 | 12 | 69 | 56 | inactive | 
8 | Cc1ccncc1NC(=O)c1cnc(N(C)CC(C)C)cn1 [ID 414, 5-(isobutyl(methyl)amino)-N-(4-methylpyridin-3-yl)pyrazine-2-carboxamide 2,2,2-trifluoroacetate] | 60 | 53 | 100 | 90 |  | 
9 | Cc1ccncc1NC(=O)c1nc(Cl)c(N2CCOCC2)nc1N [ID 419, 3-amino-6-chloro-N-(4-methylpyridin-3-yl)-5-morpholinopyrazine-2-carboxamide 2,2,2-trifluoroacetate] | 75 | 51 | 95 | 77 |  | 
10 | Cc1ccncc1NC(=O)c1nc(Cl)c(N2CCCC2)nc1N [ID 420, 3-amino-6-chloro-N-(4-methylpyridin-3-yl)-5-(pyrrolidin-1-yl)pyrazine-2-carboxamide 2,2,2-trifluoroacetate] | 52 | 49 | 73 | 72 |  | 
11 | Cc1ccncc1NC(=O)c1nc(Cl)c(N(C)Cc2ccccc2)nc1N [ID 424, 3-amino-5-(benzyl(methyl)amino)-6-chloro-N-(4-methylpyridin-3-yl)pyrazine-2-carboxamide 2,2,2-trifluoroacetate] | 70 | 39 | 98 | 78 |  | 
12 | Cc1ccncc1NC(=O)c1cnc(N(C)C(C)C)cn1 [ID 459, 5-(isopropyl(methyl)amino)-N-(4-methylpyridin-3-yl)pyrazine-2-carboxamide 2,2,2-trifluoroacetate] | 22 | 11 | 64 | 65 |  | 
13 | CCN(CC)c1nc(N)c(C(=O)Nc2cnccc2C)nc1Cl [ID 460, 3-amino-6-chloro-5-(diethylamino)-N-(4-methylpyridin-3-yl)pyrazine-2-carboxamide 2,2,2-trifluoroacetate] | 45 | 22 | 85 | 73 |  | 
14 | CCN(C)c1nc(N)c(C(=O)Nc2cnccc2C)nc1Cl [ID 469, 3-amino-6-chloro-5-(ethyl(methyl)amino)-N-(4-methylpyridin-3-yl)pyrazine-2-carboxamide 2,2,2-trifluoroacetate] | 65 | 42 | 75 | 71 |  | 
15 | Cc1ccncc1NC(=O)c1cnc(N(C)CC(C)C)c(Cl)n1 [ID 473, 6-chloro-5-(isobutyl(methyl)amino)-N-(4-methylpyridin-3-yl)pyrazine-2-carboxamide 2,2,2-trifluoroacetate] | 87 | 73 | 94 | 95 |  | 
